Assays:
Assay in all cases: Greenhouse pot test, postemergent spray, visual control rating converted to percent control
Type in all cases: in vivo
plantain = settings: for Control (1-9) Plantain: scale 1=no control, 9=death of plant
Procedure: (§1) Pots of crabgrass, dandelion, white clover, and plantain grown in greenhouse soiless growth media were sprayed with a greenhouse pot sprayer at 43.46 gallons of spray solution/acre and allowed to stand in the greenhouse. Visual observation of the effects made by the herbicidal compositions on the plants in the test pots was recorded for control of crabgrass, dandelion, clover and plantain at 24 hours after treatment (HAT), 48 hours after treatment (HAT), 72 hours after treatment (HAT), 7 days after treatment (DAT), 14 days after treatment (DAT) and 21 days after treatment (DAT). A control rating scale of 1 to 9 was used to record the visual observation of the effect of the herbicidal composition on the plants over the time period of the tests. 1=no control, and 9=death of plant, with intervening numbers representing successive degrees of observed effectiveness of the herbicidal composition over time. The 1-9 control rating scale was converted to percent control in the test data charts that follow.
(§2) The test protocol of S. R. Colby as set out in his article entitled “Calculating Synergistic and Antagonistic Responses of Herbicide Compositions,” received for publication Apr. 11, 1966, Contribution No. 3796 and Scientific Article No. 1271 of the Maryland Agricultural Experiment Station, Department pf Agronomy, University of Maryland was followed to evaluate the synergistic properties of the combination of quinclorac plus a herbicidal protox inhibitor, and a combination of quinclorac, plus a herbicidal protox inhibitor plus a herbicidal auxinic agent as compared with the individual herbicides, using Colby's formulas E=X+Y−XY/100 for a two herbicide combination, where E=the expected percent of inhibition of growth by herbicides, X=the percent inhibition of growth by herbicide A at p lb/A, and Y=the percent inhibition of growth by herbicide B at q lb/A, for a given combination of two herbicides. Colby's formula E=X+Y+Z−(XY+XZ+YZ)/100+XYZ/10,000, was used for the three-way herbicide combination evaluation, where E, X and Y are the same as in the two herbicide formula and Z=the percent inhibition of growth by the third herbicide.

white clover = settings: for Control (1-9) Clover: scale 1=no control, 9=death of plant
Procedure: as §1, §2

dandelion = settings: for Control (1-9) Dandelion: scale 1=no control, 9=death of plant
Procedure: as §1, §2

crabgrass = settings: for Control (1-9) Crabgrass: scale 1=no control, 9=death of plant
Procedure: as §1, §2

Cc1nn(-c2cc(NS(C)(=O)=O)c(Cl)cc2Cl)c(=O)n1C(F)F [Sulfentrazone @ 0.03 lbs/A]
% Control Plantain (plantain; Test 3, 7 DAT): 88.9% | Control (1-9) Plantain (plantain; Test 3, 7 DAT): 8 | % Control Plantain (plantain; Test 3, 14 DAT): 88.9% | Control (1-9) Plantain (plantain; Test 3, 14 DAT): 8 | % Control Plantain (plantain; Test 3, 21 DAT): 100.0% | Control (1-9) Plantain (plantain; Test 3, 21 DAT): 9 | % Control Plantain (plantain; Test 3, 24 HAT): 44.4% | Control (1-9) Plantain (plantain; Test 3, 24 HAT): 4 | % Control Plantain (plantain; Test 3, 72 HAT): 66.7% | Control (1-9) Plantain (plantain; Test 3, 72 HAT): 6 | % Control Clover (white clover; Test 3, 7 DAT): 44.4% | Control (1-9) Clover (white clover; Test 3, 7 DAT): 4 | % Control Clover (white clover; Test 3, 14 DAT): 55.6% | Control (1-9) Clover (white clover; Test 3, 14 DAT): 5 | % Control Clover (white clover; Test 3, 21 DAT): 55.6% | Control (1-9) Clover (white clover; Test 3, 21 DAT): 5 | % Control Clover (white clover; Test 3, 24 HAT): 22.2% | Control (1-9) Clover (white clover; Test 3, 24 HAT): 2 | % Control Clover (white clover; Test 3, 72 HAT): 33.3% | Control (1-9) Clover (white clover; Test 3, 72 HAT): 3 | % Control Dandelion (dandelion; Test 3, 7 DAT): 66.7% | Control (1-9) Dandelion (dandelion; Test 3, 7 DAT): 6 | % Control Dandelion (dandelion; Test 3, 14 DAT): 77.8% | Control (1-9) Dandelion (dandelion; Test 3, 14 DAT): 7 | % Control Dandelion (dandelion; Test 3, 21 DAT): 77.8% | Control (1-9) Dandelion (dandelion; Test 3, 21 DAT): 7 | % Control Dandelion (dandelion; Test 3, 24 HAT): 33.3% | Control (1-9) Dandelion (dandelion; Test 3, 24 HAT): 3 | % Control Dandelion (dandelion; Test 3, 72 HAT): 55.6% | Control (1-9) Dandelion (dandelion; Test 3, 72 HAT): 5 | % Control Crabgrass (crabgrass; Test 3, 7 DAT): 55.6% | Control (1-9) Crabgrass (crabgrass; Test 3, 7 DAT): 5 | % Control Crabgrass (crabgrass; Test 3, 14 DAT): 55.6% | Control (1-9) Crabgrass (crabgrass; Test 3, 14 DAT): 5 | % Control Crabgrass (crabgrass; Test 3, 21 DAT): 44.4% | Control (1-9) Crabgrass (crabgrass; Test 3, 21 DAT): 4 | % Control Crabgrass (crabgrass; Test 3, 24 HAT): 11.1% | Control (1-9) Crabgrass (crabgrass; Test 3, 24 HAT): 1 | % Control Crabgrass (crabgrass; Test 3, 72 HAT): 44.4% | Control (1-9) Crabgrass (crabgrass; Test 3, 72 HAT): 4

O=C(O)c1c(Cl)ccc2cc(Cl)cnc12 [Quinclorac @ 0.75 lbs/A]
% Control Plantain (plantain; Test 3, 7 DAT): 33.3% | Control (1-9) Plantain (plantain; Test 3, 7 DAT): 3 | % Control Plantain (plantain; Test 3, 14 DAT): 55.6% | Control (1-9) Plantain (plantain; Test 3, 14 DAT): 5 | % Control Plantain (plantain; Test 3, 21 DAT): 55.6% | Control (1-9) Plantain (plantain; Test 3, 21 DAT): 5 | % Control Plantain (plantain; Test 3, 24 HAT): 11.1% | Control (1-9) Plantain (plantain; Test 3, 24 HAT): 1 | % Control Plantain (plantain; Test 3, 72 HAT): 22.2% | Control (1-9) Plantain (plantain; Test 3, 72 HAT): 2 | % Control Plantain (plantain; Test 4, 24 HAT): 11.1% | Control (1-9) Plantain (plantain; Test 4, 24 HAT): 1 | % Control Plantain (plantain; Test 4, 72 HAT): 33.3% | Control (1-9) Plantain (plantain; Test 4, 72 HAT): 3 | % Control Clover (white clover; Test 3, 7 DAT): 44.4% | Control (1-9) Clover (white clover; Test 3, 7 DAT): 4 | % Control Clover (white clover; Test 3, 14 DAT): 55.6% | Control (1-9) Clover (white clover; Test 3, 14 DAT): 5 | % Control Clover (white clover; Test 3, 21 DAT): 88.9% | Control (1-9) Clover (white clover; Test 3, 21 DAT): 8 | % Control Clover (white clover; Test 3, 24 HAT): 11.1% | Control (1-9) Clover (white clover; Test 3, 24 HAT): 1 | % Control Clover (white clover; Test 3, 72 HAT): 22.2% | Control (1-9) Clover (white clover; Test 3, 72 HAT): 2 | % Control Clover (white clover; Test 4, 24 HAT): 11.1% | Control (1-9) Clover (white clover; Test 4, 24 HAT): 1 | % Control Clover (white clover; Test 4, 72 HAT): 22.2% | Control (1-9) Clover (white clover; Test 4, 72 HAT): 2 | % Control Dandelion (dandelion; Test 3, 7 DAT): 22.2% | Control (1-9) Dandelion (dandelion; Test 3, 7 DAT): 2 | % Control Dandelion (dandelion; Test 3, 14 DAT): 44.4% | Control (1-9) Dandelion (dandelion; Test 3, 14 DAT): 4 | % Control Dandelion (dandelion; Test 3, 21 DAT): 33.3% | Control (1-9) Dandelion (dandelion; Test 3, 21 DAT): 3 | % Control Dandelion (dandelion; Test 3, 24 HAT): 11.1% | Control (1-9) Dandelion (dandelion; Test 3, 24 HAT): 1 | % Control Dandelion (dandelion; Test 3, 72 HAT): 22.2% | Control (1-9) Dandelion (dandelion; Test 3, 72 HAT): 2 | % Control Dandelion (dandelion; Test 4, 24 HAT): 11.1% | Control (1-9) Dandelion (dandelion; Test 4, 24 HAT): 1 | % Control Dandelion (dandelion; Test 4, 72 HAT): 22.2% | Control (1-9) Dandelion (dandelion; Test 4, 72 HAT): 2 | % Control Crabgrass (crabgrass; Test 3, 7 DAT): 22.2% | Control (1-9) Crabgrass (crabgrass; Test 3, 7 DAT): 2 | % Control Crabgrass (crabgrass; Test 3, 14 DAT): 66.7% | Control (1-9) Crabgrass (crabgrass; Test 3, 14 DAT): 6 | % Control Crabgrass (crabgrass; Test 3, 21 DAT): 77.8% | Control (1-9) Crabgrass (crabgrass; Test 3, 21 DAT): 7 | % Control Crabgrass (crabgrass; Test 3, 24 HAT): 11.1% | Control (1-9) Crabgrass (crabgrass; Test 3, 24 HAT): 1 | % Control Crabgrass (crabgrass; Test 3, 72 HAT): 22.2% | Control (1-9) Crabgrass (crabgrass; Test 3, 72 HAT): 2 | % Control Crabgrass (crabgrass; Test 4, 24 HAT): 11.1% | Control (1-9) Crabgrass (crabgrass; Test 4, 24 HAT): 1 | % Control Crabgrass (crabgrass; Test 4, 72 HAT): 22.2% | Control (1-9) Crabgrass (crabgrass; Test 4, 72 HAT): 2

O=C(O)c1c(Cl)ccc2cc(Cl)cnc12 [Quinclorac @ 0.375 lbs/A]
% Control Plantain (plantain; Test 3, 7 DAT): 33.3% | Control (1-9) Plantain (plantain; Test 3, 7 DAT): 3 | % Control Plantain (plantain; Test 3, 14 DAT): 44.4% | Control (1-9) Plantain (plantain; Test 3, 14 DAT): 4 | % Control Plantain (plantain; Test 3, 21 DAT): 44.4% | Control (1-9) Plantain (plantain; Test 3, 21 DAT): 4 | % Control Plantain (plantain; Test 3, 24 HAT): 11.1% | Control (1-9) Plantain (plantain; Test 3, 24 HAT): 1 | % Control Plantain (plantain; Test 3, 72 HAT): 22.2% | Control (1-9) Plantain (plantain; Test 3, 72 HAT): 2 | % Control Plantain (plantain; Test 4, 24 HAT): 11.1% | Control (1-9) Plantain (plantain; Test 4, 24 HAT): 1 | % Control Plantain (plantain; Test 4, 72 HAT): 22.2% | Control (1-9) Plantain (plantain; Test 4, 72 HAT): 2 | % Control Clover (white clover; Test 3, 7 DAT): 44.4% | Control (1-9) Clover (white clover; Test 3, 7 DAT): 4 | % Control Clover (white clover; Test 3, 14 DAT): 55.6% | Control (1-9) Clover (white clover; Test 3, 14 DAT): 5 | % Control Clover (white clover; Test 3, 21 DAT): 88.9% | Control (1-9) Clover (white clover; Test 3, 21 DAT): 8 | % Control Clover (white clover; Test 3, 24 HAT): 11.1% | Control (1-9) Clover (white clover; Test 3, 24 HAT): 1 | % Control Clover (white clover; Test 3, 72 HAT): 22.2% | Control (1-9) Clover (white clover; Test 3, 72 HAT): 2 | % Control Clover (white clover; Test 4, 24 HAT): 11.1% | Control (1-9) Clover (white clover; Test 4, 24 HAT): 1 | % Control Clover (white clover; Test 4, 72 HAT): 22.2% | Control (1-9) Clover (white clover; Test 4, 72 HAT): 2 | % Control Dandelion (dandelion; Test 3, 7 DAT): 22.2% | Control (1-9) Dandelion (dandelion; Test 3, 7 DAT): 2 | % Control Dandelion (dandelion; Test 3, 14 DAT): 44.4% | Control (1-9) Dandelion (dandelion; Test 3, 14 DAT): 4 | % Control Dandelion (dandelion; Test 3, 21 DAT): 55.6% | Control (1-9) Dandelion (dandelion; Test 3, 21 DAT): 5 | % Control Dandelion (dandelion; Test 3, 24 HAT): 11.1% | Control (1-9) Dandelion (dandelion; Test 3, 24 HAT): 1 | % Control Dandelion (dandelion; Test 3, 72 HAT): 22.2% | Control (1-9) Dandelion (dandelion; Test 3, 72 HAT): 2 | % Control Dandelion (dandelion; Test 4, 24 HAT): 22.2% | Control (1-9) Dandelion (dandelion; Test 4, 24 HAT): 2 | % Control Dandelion (dandelion; Test 4, 72 HAT): 22.2% | Control (1-9) Dandelion (dandelion; Test 4, 72 HAT): 2 | % Control Crabgrass (crabgrass; Test 3, 7 DAT): 22.2% | Control (1-9) Crabgrass (crabgrass; Test 3, 7 DAT): 2 | % Control Crabgrass (crabgrass; Test 3, 14 DAT): 44.4% | Control (1-9) Crabgrass (crabgrass; Test 3, 14 DAT): 4 | % Control Crabgrass (crabgrass; Test 3, 21 DAT): 66.7% | Control (1-9) Crabgrass (crabgrass; Test 3, 21 DAT): 6 | % Control Crabgrass (crabgrass; Test 3, 24 HAT): 11.1% | Control (1-9) Crabgrass (crabgrass; Test 3, 24 HAT): 1 | % Control Crabgrass (crabgrass; Test 3, 72 HAT): 11.1% | Control (1-9) Crabgrass (crabgrass; Test 3, 72 HAT): 1 | % Control Crabgrass (crabgrass; Test 4, 24 HAT): 11.1% | Control (1-9) Crabgrass (crabgrass; Test 4, 24 HAT): 1 | % Control Crabgrass (crabgrass; Test 4, 72 HAT): 11.1% | Control (1-9) Crabgrass (crabgrass; Test 4, 72 HAT): 1

From patent publication US20040266623A1, “SYNERGISTIC QUINCLORAC HERBICIDAL COMPOSITIONS” (priority 2003, published 2004)
